In patent US9102698B2 (CAN-FITE BIOPHARMA LTD., priority 2007, dated 2015):

Columns and labels:
[1] = Solubility study on 3-iodobenzylamine hydrochloride in synthesis solvents; type: physicochemical
Excerpt: 3-Iodobenzylamine hydrochloride recrystallized from protic solvents but was insoluble in aprotic organic solvents. No purity enhancement was observed during hot (reflux) slurries in aprotic organic solvents.

colon carcinoma = conditions: oral, nude mice; cited from earlier work
A3AR = conditions: synovial and peripheral blood mononuclear cells of AIA rats, upon IB-MECA treatment; cited from earlier work
neutrophils = conditions: oral, mice, cited from earlier work
[2] = system: tumors (melanoma, colon carcinoma, prostate carcinoma); conditions: orally administered; syngeneic (melanoma, colon carcinoma) and xenograft (colon and prostate carcinoma) mouse models; cited from earlier work
TNF-α and MIP-1α = conditions: in vitro; cited from earlier work
[3] = system: collagen and adjuvant induced arthritis (AIA); conditions: experimental animal models; cited from earlier work

Row | SMILES | Behavior at 21 C. ([1]; IPA, 10 solvent volumes) | Behavior at reflux ([1]; IPA, 10 solvent volumes) | Behavior at 21 C. ([1]; IPAc, 10 solvent volumes) | Behavior at reflux ([1]; IPAc, 10 solvent volumes) | Behavior at 21 C. ([1]; MeCN, 5 solvent volumes) | Behavior at reflux ([1]; MeCN, 5 solvent volumes) | Behavior at 21 C. ([1]; MeOH, 1 solvent volume) | Behavior at reflux ([1]; MeOH, 1 solvent volume) | Behavior at 21 C. ([1]; THF, 10 solvent volumes) | Behavior at reflux ([1]; THF, 10 solvent volumes) | neutrophil recovery after cytotoxic drug therapy (colon carcinoma) | progression of colon carcinoma (colon carcinoma) | A3AR level (A3AR) | cytotoxic-induced myelo-toxicity (neutrophils) | production of neutrophils (neutrophils; via an increase in G-CSF) | development of tumors [2] | production of MIP-1α (TNF-α and MIP-1α) | production of TNF-α (TNF-α and MIP-1α) | development of collagen and adjuvant induced arthritis [3]
1 | Cl.NCc1cccc(I)c1 [3-iodobeuzylamine hydrochloride, 3-iodobenzylamine hydrochloride] | Insoluble | Soluble | Insoluble | Insoluble | Insoluble | Insoluble | Insoluble | Soluble | Insoluble | Insoluble |  |  |  |  |  |  |  |  | 
2 | CNC(=O)[C@H]1O[C@@H](n2cnc3c(NCc4cccc(I)c4)ncnc32)[C@H](O)[C@@H]1O [IB-MECA, 1-deoxy-1-(6-{[(3-iodophenyl)methyl]amino}9H-purine-9-yl)-N-methyl-β-d-ribofuranuronamide] |  |  |  |  |  |  |  |  |  |  | stimulates neutrophil recovery | inhibits progression of colon carcinoma | down regulates | protects against cytotoxic-induced myelo-toxicity | stimulates the production of neutrophils | inhibits the development of tumors | inhibited | inhibited | preventing the development
